According to US20200207734A1, “HETEROCYCLIC COMPOUND AND USE THEREOF” (Takeda Pharmaceutical Company Limited, priority 2017, published 2020):

Biological target: T1, human orexin type 2 receptor (Homo sapiens, UniProt O43614)
T1 construct: human orexin type 2 receptor cDNA was inserted into pcDNA3.1(+) plasmid vector (Invitrogen); expressed in transfected cells
T1 sequence (O43614 1-444): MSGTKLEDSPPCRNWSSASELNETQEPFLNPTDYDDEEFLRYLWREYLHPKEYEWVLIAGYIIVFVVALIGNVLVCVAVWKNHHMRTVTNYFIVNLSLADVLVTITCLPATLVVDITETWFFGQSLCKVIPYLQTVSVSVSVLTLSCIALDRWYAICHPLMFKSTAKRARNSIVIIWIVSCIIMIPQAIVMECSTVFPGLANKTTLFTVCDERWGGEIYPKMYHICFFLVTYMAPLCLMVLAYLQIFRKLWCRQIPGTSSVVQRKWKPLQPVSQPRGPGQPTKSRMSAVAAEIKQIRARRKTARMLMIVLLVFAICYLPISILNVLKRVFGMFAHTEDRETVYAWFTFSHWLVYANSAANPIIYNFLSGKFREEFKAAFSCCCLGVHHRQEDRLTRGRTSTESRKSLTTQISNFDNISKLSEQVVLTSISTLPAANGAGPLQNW
Experiment: Measurement of orexin type 2 receptor agonist activity (calcium fluorescence, CHO cells expressing hOX2R)
Assay type: cell-based
Conditions: test compound 3 μM; CHO cells expressing human OX2 receptor; DMSO = 0%, orexin A (human) = 100%
From the text: To obtain a cell clone stably expressing human orexin type 2 receptor, human orexin type 2 receptor cDNA was inserted into pcDNA3.1(+) plasmid vector (Invitrogen), and a plasmid DNA for expression of human orexin type 2 receptor (pcDNA3.1(+)/hOX2R) was cloned. The plasmid DNA was introduced into CHO-dhfr cell by an electroporation method, and human orexin type 2 receptor expressing clone cells were obtained by limiting dilution method by using G418 drug resistance as a selection marker.
CHO cells forcibly expressing human OX2 receptor were seeded in each well of 384 well black transparent bottom plate (BD Falcon) at 7,500 cells/well, and cultured for one day in a 5% CO2 incubator at 37° C. After removal of the medium in the cell plate, assay buffer A containing a calcium indicator (HBSS (Thermo Fisher Scientific), 20 mM HEPES (Thermo Fisher Scientific), 0.1% BSA (Wako Pure Chemical Industries, Ltd. or Sigma-Aldrich), 2.5 μg/mL Fluo-4 AM (DOJINDO Chemical), 0.08% Pluronic F127 (DOJINDO Chemical), 1.25 mM probenecid (DOJINDO Chemical)) was added at 30 μL/well. The plate was stood for 30 min in a 5% CO2 incubator at 37° C., and further stood at room temperature for 30 min. A test compound prepared by diluting with assay buffer B (HBSS, 20 mM HEPES, 0.1% BSA) was added at 10 μL/well, and the fluorescence value was measured by FDSSμCELL (Hamamatsu Photonics K.K.) every one sec for 1 min, and thereafter every two sec for 1 min 40 sec. The activity (%) of the test compound was calculated assuming that variation in the fluorescence value when DMSO was added instead of the test compound was 0%, and variation in the fluorescence value when orexin A (human) (PEPTIDE INSTITUTE, INC.) was added at the final concentration of 10 nM was 100%.

With `CCNC(=O)N1CCC[C@H](NS(C)(=O)=O)[C@@H]1Cc1cccc(Cc2ccccc2)c1` (relative stereo) [Example 1, cis-2-(3-benzylbenzyl)-N-ethyl-3-((methylsulfonyl)amino)piperidine-1-carboxamide] the “OX2R agonist activity (3 μM, %)” value was 81%.
In the case of `CCNC(=O)N1CCC[C@H](NS(C)(=O)=O)[C@@H]1Cc1cccc(Cc2cccc(C)c2)c1` (relative stereo) [Example 2, cis-N-ethyl-2-(3-(3-methylbenzyl)benzyl)-3-((methylsulfonyl)amino)piperidine-1-carboxamide], the “OX2R agonist activity (3 μM, %)” value is reported as 90%.
For `CCNC(=O)N1CCC[C@H](NS(C)(=O)=O)[C@@H]1Cc1cccc(-c2ccccc2)c1` (relative stereo) [Example 3, cis-2-(biphenyl-3-ylmethyl)-N-ethyl-3-((methylsulfonyl)amino)piperidine-1-carboxamide], the “OX2R agonist activity (3 μM, %)” value was 101%.
In the case of `CCNC(=O)N1CCC[C@H](NS(C)(=O)=O)[C@@H]1Cc1cccc(OC2CCCCC2)c1` (relative stereo) [Example 7, cis-2-(3-(cyclohexyloxy)benzyl)-N-ethyl-3-((methylsulfonyl)amino)piperidine-1-carboxamide], the “OX2R agonist activity (3 μM, %)” value is reported as 62%.
`CCNC(=O)N1CCC[C@H](NS(C)(=O)=O)[C@@H]1Cc1cccc(Oc2ccccc2)c1` (relative stereo) [Example 10, cis-N-ethyl-3-((methylsulfonyl)amino)-2-(3-phenoxybenzyl)piperidine-1-carboxamide] was tested, and the “OX2R agonist activity (3 μM, %)” value was 91%.
With `COC(=O)N1CCC[C@H](NS(C)(=O)=O)[C@@H]1Cc1cccc(-c2ccccc2)c1` (relative stereo) [Example 11, methyl cis-2-(biphenyl-3-ylmethyl)-3-((methylsulfonyl)amino)piperidine-1-carboxylate] the “OX2R agonist activity (3 μM, %)” value was 80%.
For `COC(=O)N1CCC[C@H](NS(C)(=O)=O)[C@@H]1Cc1cccc(-c2cccc(F)c2)c1` (relative stereo) [Example 14, methyl cis-2-((3′-fluorobiphenyl-3-yl)methyl)-3-((methylsulfonyl)amino)piperidine-1-carboxylate], the “OX2R agonist activity (3 μM, %)” value was 82%.
With `CCNC(=O)N1CCC[C@H](NS(C)(=O)=O)[C@@H]1Cc1cccc(O[Si](C(C)C)(C(C)C)C(C)C)c1` (relative stereo) [Example 17, cis-N-ethyl-3-((methylsulfonyl)amino)-2-(3-((triisopropylsilyl)oxy)benzyl)piperidine-1-carboxamide] the “OX2R agonist activity (3 μM, %)” value was 29%.
With `CC(=O)N1CCC[C@H](NS(C)(=O)=O)[C@@H]1Cc1cccc(-c2ccccc2)c1` (relative stereo) [Example 22, N-(cis-1-acetyl-2-(biphenyl-3-ylmethyl)piperidin-3-yl)methanesulfonamide] the “OX2R agonist activity (3 μM, %)” value was 60%.
In the case of `COC(=O)N1CCC[C@H](NS(C)(=O)=O)[C@@H]1Cc1cccc(N2CCCC2)c1` (relative stereo) [Example 27, methyl cis-3-((methylsulfonyl)amino)-2-(3-(pyrrolidin-1-yl)benzyl)piperidine-1-carboxylate], the “OX2R agonist activity (3 μM, %)” value is reported as 66%.
For `CCOC(=O)N1CCC[C@H](NS(C)(=O)=O)[C@@H]1Cc1cccc(-c2ccccc2)c1` (relative stereo) [Example 29, ethyl cis-2-(biphenyl-3-ylmethyl)-3-((methylsulfonyl)amino)piperidine-1-carboxylate], the “OX2R agonist activity (3 μM, %)” value was 98%.
For `CCNC(=O)N1CCC[C@H](NS(C)(=O)=O)[C@@H]1Cc1cccc(-c2ccc(C(F)(F)F)cc2)c1` (relative stereo) [Example 35, cis-N-ethyl-3-((methylsulfonyl)amino)-2-((4′-(trifluoromethyl)biphenyl-3-yl)methyl)piperidine-1-carboxamide], the “OX2R agonist activity (3 μM, %)” value was 41%.
